In patent US11896615B2, “Immunotherapy methods and compositions involving tryptophan metabolic pathway modulators” (Juno Therapeutics, Inc., priority 2016, dated 2024):
Entries after “also recorded” stand apart in the source; their conditions may differ.

Columns and labels:
[1] = tested on: anti-CD19 CAR-expressing T cells; assay: Effect of tryptophan metabolites on CAR T proliferation with IDO1- target cells; format: cell-based, human; conditions: 96 hours; for CAR T cell proliferation: CD19.Daudi target cells, 0 to 100 μM; for CAR T cell numbers (CD3+ cells per well): CD19.K562 target cells, 6.25 to 100 μM
Procedure: Cells were stained for surface expression of CD4 and CD8. Proliferation of T cell populations was determined by flow cytometry, based on the extent of dilution of the CellTrace™ violet dye. […] The number of CD3^+ cells per well was determined using CountBright beads.

[2] = tested on: anti-CD19 CAR-expressing T cells; assay: Proliferation of anti-CD19 CAR T cells co-cultured with IDO1+ CD19.A549 cells (CellTrace violet dilution, bead counts, microscopy); format: cell-based, human
Procedure: Cells were stained for expression of CD4 and CD8 and proliferation of T cell populations determined by flow cytometry, based on the extent of dilution of the CellTrace™ Violet dye.
Similar methods were used to assess proliferation of anti-CD19 CAR-expressing T cells generated from three different healthy donors following co-culture with CD19-expressing A549 target cells (CD19.A549).
The number of CAR T cells in each well was determined using CountBright Absolute Counting beads.
(§1) Similar methods were used to assess the effect of the IDO1 inhibitor on proliferation of CAR-expressing T cells following co-culture of anti-CD19 CAR-expressing cells with either IDO1^+ cells (A549.CD19) or IDO1^− cells (K562.CD19). […] The average number of CAR T cell divisions was calculated based on peaks in dye dilution, and proliferation of CD4^+ and CD8^+ subsets was compared.
Cells were visualized at 72 hours and 120 hours.

[3] = tested on: anti-CD19 CAR-expressing T cells; assay: Proliferation of anti-CD19 CAR T cells co-cultured with IDO1- target cells (CD19.Daudi, K562.CD19); format: cell-based, human; conditions: co-culture with IDO1- cells, various concentrations
Procedure: as §1

[4] = tested on: anti-ROR1 CAR-expressing T cells; assay: Proliferation of anti-ROR1 CAR T cells co-cultured with CD19.A549 cells; format: cell-based, human; conditions: 250 nM, E:T 3:1, 96 hours, compared to absence of inhibitor
Source text: Similar methods were used to assess the effect of the IDO1 inhibitor on proliferation of anti-ROR1 CAR-expressing T cells cultured in the presence of antigen-expressing target cells.

[5] = tested on: anti-CD19 CAR-expressing T cells; assay: Sustained expansion of anti-CD19 CAR T cells (% confluency over time); format: cell-based, human
Procedure: Expansion of anti-CD19 expressing CAR cells following co-culture with A549 adenocarcinoma human alveolar basal epithelial cells transduced with human CD19 (CD19.A549 cells) was assessed for over 10 days. […] Expansion was assessed based on % confluency in the culture as determined over time. […] The IDO1 inhibitor-promoted increase in expansion was sustained for more than 10 days in culture. The results were consistent with a conclusion that IDO-upregulation and/or IDO-dependent signaling can occur or be promoted following CAR-T antigen-specific activation and result in dampening of proliferation of the CAR-T cells, e.g., over a 5- or 10-day period, and that inhibition of IDO can in some contexts rescue such inhibition.

[6] = tested on: anti-CD19 CAR-expressing T cells; assay: Cytokine release in co-culture supernatants; format: cell-based, human; conditions: for GM-CSF level in supernatant / IFNγ level in supernatant / TNFα level in supernatant: epacadostat 10, 100 or 1000 nM or supplemental tryptophan, compared to no addition; for IL-2 levels in supernatant: for up to 72 hours, levels decreased at 96 hours
[7] = tested on: CD4+ and CD8+ CAR-expressing T cells; assay: CD25 surface expression on CD4+ and CD8+ CAR-expressing T cells (flow cytometry); format: cell-based, human
CD19.A549 = assay: Cytolytic activity of anti-CD19 CAR T cells (Incucyte, NucRed-labeled targets); format: cell-based, human; conditions: 0 to 1000 nM, 0.25:1 E:T, up to approximately 340 hours
Procedure: Lysis of target cells was measured over time using the Incucyte quantitative cell analysis system (Essen BioScience) by assessing the staining intensity of cells for the NucRed dye.

CAR T cells = assay: CAR T cell proliferation in the presence of IDO1+ HS-5 bystander cells; format: cell-based, human; conditions: with or without HS-5 cells, 96 hours, various concentrations
Procedure: Proliferation of CAR T cells in the presence of IDO1-expressing bone marrow stromal cells or an IDO1 inhibitor was determined.

[8] = tested on: anti-CD19 CAR-expressing T cells; assay: CAR T cell counts and proliferation with IDO1 inhibitor or supplemental tryptophan in co-culture with CD19.A549; format: cell-based, human; conditions: 5 μg/mL added every 24 hours, 96 hours with IDO1+ A549.CD19, compared to no treatment
Procedure: Proliferation was assessed by flow cytometry, and CAR+ T cell count in each well was determined.

CAR-expressing T cells = assay: CAR T function in tryptophan-depleted media with supplemental tryptophan; format: cell-based, human
Procedure: Effects of tryptophan starvation on antigen-induced function of CAR-T cells were assessed. CAR-expressing T cells labeled with CellTrace™ violet were co-cultured with target cells (K562 human myelogenous leukemia target cells transduced with CD19 (CD19.K562)) that had been observed not to induce IDO1-expression, in tryptophan-depleted media, with or without the addition of various concentrations of supplemental tryptophan. Tryptophan-containing media was used as a control (Trp Control). Target cell count and proliferation (assessed by flow cytometry via CTV dye dilution; MFI=mean fluorescence intensity).
A similar study was carried out to assess effects of tryptophan-starvation, but in which CAR-mediated function was induced using an agonistic anti-idiotype antibody specific for the CAR as opposed to antigen-expressing target cells. Anti-CD19 CAR-expressing cells, generated substantially as described in Example 1, were stimulated for 96 hours using plate-bound anti-idiotypic agonistic antibody, in tryptophan-depleted media, alone or supplemented with various concentrations of tryptophan. The number of CD3^+ cells per well was determined. Representative results from exemplary studies are shown in FIG. 15D and FIG. 15E (results from three different donors). […]

[9] = tested on: anti-CD19 CAR-expressing cells; assay: Intracellular cytokines after re-exposure to antigen following tryptophan starvation; format: cell-based, human; conditions: tryptophan supplementation in the subsequent culture
Procedure: Effect of tryptophan starvation on CAR-T function (proliferation, cytokine production) following subsequent re-exposure to antigen was assessed. […] The cells were harvested, counted and re-cultured with fresh CD19-expressing A549 target cells (CD19.A549) in tryptophan-depleted media (media from the “no tx” cultures at 96 hours) with or without supplemented tryptophan. Intracellular levels of interferon-gamma (IFNγ) and interlekukin-2 (IL-2) were assessed by intracellular cytokine staining, and the percentage of CD4+ or CD8+ cells deemed positive for the given intracellular cytokine production was determined.

[10] = tested on: anti-CD19 CAR-expressing T cells; assay: Recovery from tryptophan starvation; format: cell-based, human; conditions: supplemental tryptophan added after starvation, out to 96 hours
Procedure: Anti-CD19 CAR-expressing T cells, generated as described in Example 1, were cultured in tryptophan starvation conditions (chemically defined tryptophan-free media) for 24, 48, 72 or 96 hours (24, 48, 72 or 96 hr Trp starv.). After tryptophan starvation for the indicated time, supplemental tryptophan was added to the cultures. The cells then were cultured in the presence of tryptophan until the cells were harvested at 24, 48, 72 or 96 hours. As a control, reflecting tryptophan sufficient conditions, cells were cultured in tryptophan-sufficient media for each respective time period (complete media). The number of CD3^+ cells per well was assessed. Intracellular production of interferon-gamma (IFNγ) and tumor necrosis factor alpha (TNFα) was assessed by intracellular cytokine staining, and the percentage of CD4+ or CD8+ cells positive for cytokine accumulation was determined.

CD19.A549 cells = assay: IDO1 expression in CD19.A549 cells after IFNγ stimulation (flow cytometry); format: cell-based, human
Procedure: (§2) A549 adenocarcinoma human alveolar basal epithelial cells transduced with human CD19 (CD19.A549 cells, which may also referred to as A549.CD19 cells) were assessed for expression of indoleamine-pyrrole 2,3-dioxygenase 1 (IDO1) following stimulation with interferon-gamma (IFNγ). CD19.A549 cells were stimulated with IFNγ for 24 or 48 hours and IDO1 levels were assessed by flow cytometry using an anti-IDO antibody. […] Increased IDO1 expression was not detected in other CD19^+ tumor cell lines in this assay, including JeKo-1, Daudi, Raji and Nalm-6 cells, following incubation with IFNγ under similar conditions.
CD19.A549 cells were cultured with various concentrations of recombinant human IFNγ.

[11] = tested on: JeKo-1, Daudi, Raji and Nalm-6 cells; assay: IDO1 expression in other CD19+ tumor cell lines after IFNγ incubation; format: cell-based, human; conditions: incubation with IFNγ under similar conditions
Procedure: as §2

[12] = tested on: HS-5 human bone marrow stromal cells; assay: IDO1 expression in HS-5 bone marrow stromal cells after IFNγ; format: cell-based; conditions: 20 ng/mL recombinant human IFNγ, 24 hours
Procedure: Expression level of Indoleamine-Pyrrole 2,3-Dioxygenase 1 (IDO1) was determined in bone marrow stromal cells upon stimulation by interferon-gamma (IFNγ) or with co-incubation with CAR-expressing T cells. Bone marrow stromal cells are exemplary of bystander cells, e.g., non-tumor cells, present in the TME.
HS-5 human bone marrow stromal cells were stimulated with 20 ng/mL recombinant human IFNγ for 24 hours.

dendritic cells = assay: IDO1 expression in dendritic cells after IFNγ and/or LPS stimulation; format: cell-based; conditions: dendritic cells (DC), 24 hours stimulation
Procedure: To assess whether myeloid cells present in the TME, including tumor-associated macrophages and dendritic cells, can be induced to express IDO1, the expression level of IDO1 in dendritic cells and macrophages upon stimulation by interferon-gamma (IFNγ) or lipopolysaccharide (LPS) was determined by flow cytometry. Dendritic cells were subject to monoculture with GM-CSF and interleukin-4 (IL-4), and macrophages were subject to monoculture with M-CSF, for 6 days. After monoculture, the cells were stimulated with IFNγ and/or LPS for 24 hours, and IDO1 expression was determined by flow cytometry.

[13] = supplemental tryptophan or 100 nM or 1000 nM epacadostat, co-culture with CD19.A549

`Nc1ccccc1C(=O)C[C@H](N)C(=O)O` [L-Kynurenine] was tested, and the “CAR T cell proliferation” value [1] was “did not inhibit CAR T cell proliferation” and the “CAR T cell numbers (CD3+ cells per well)” value [1] was “did not substantially affect CAR T cell numbers”.

With `NS(=O)(=O)NCCNc1nonc1C(=NO)Nc1ccc(F)c(Br)c1` [epacadostat, 4-({2-[(aminosulfonyl)amino]ethyl}amino)-N-(3-bromo-4-fluorophenyl)-N′-hydroxy-1,2,5-oxadiazole-3-carboximidamide] the “number of CAR T cells per well” value ([2]; 250 nM, 96 hours, three donors, compared to absence of inhibitor) was “higher number CAR T cells”, the “CAR-expressing T cells visualized by microscopy” value ([2]; 1 μM, 120 hours, 1:1 E:T, compared to no inhibitor) was “large increase in CAR-expressing T cells” and the EC50 ([2]; Homo sapiens, co-culture with A549 cells (IDO1+), 1:1 E:T, read-out: estimated EC50 (CAR T proliferation)) was roughly 223 nM. For the same compound, the “proliferation of CD4+ and CD8+ CAR-expressing T cells” value ([2]; co-culture with IDO1+ CD19.A549 cells, 96 hours, various concentrations) was “dose-dependent increase in proliferation; also recorded: increased proliferation”, the “proliferation of CD4+ and CD8+ CAR-expressing T cells” value [3] was “not when co-cultured with IDO1^− cells (Daudi)” and the “number of CAR T cells” value [4] was “higher number of CAR T cells”. The “expansion of CAR-expressing T cells (% confluency)” value ([5]; 0 to 1000 nM, up to approximately 340 hours) was “increasing expansion of CAR-expressing T cells”, the “duration of inhibitor-promoted increase in expansion” value ([5]; in culture with CD19.A549) was “over 10 days” and the TNFα production ([6]; 48 hours, 1:1 E:T with CD19.A549, various concentrations) was “increased TNFα production”. For the same compound, the “GM-CSF level in supernatant” value [6] was “increased level”, the “IFNγ level in supernatant” value [6] was “increased level” and the “TNFα level in supernatant” value [6] was “increased level”. The “IL-2 levels in supernatant” value [6] was “increased”, the “CD25 surface expression (MFI)” value ([7]; 96 hours co-culture with IDO1+ CD19.A549 cells, 1:1 E:T) was “reduced” and the CD25 surface expression ([7]; 96 hours co-culture with IDO1- CD19.Daudi cells) was “not affected”. For the same compound, the “CD25 surface expression (MFI)” value [7, 13] was “reduced”, the “NucRed dye intensity of target cells (AUC)” value (CD19.A549) was “dose-dependent reduction of NucRed dye intensity” and the “proliferation of CAR T cells” value (CAR T cells) was “not substantially affected”.

With `Nc1c(O)cccc1C(=O)O` [3-HAA, 3-hydroxyanthranilic acid] the “CAR T cell proliferation” value [1] was “did not inhibit CAR T cell proliferation” and the “CAR T cell numbers (CD3+ cells per well)” value [1] was “did not substantially affect CAR T cell numbers”.

In the case of `N[C@@H](Cc1c[nH]c2ccccc12)C(=O)O` [tryptophan], the “GM-CSF level in supernatant” value [6] is reported as “increased level”, the “IFNγ level in supernatant” value [6] is reported as “increased level” and the “TNFα level in supernatant” value [6] is reported as “increased level”. For the same compound, the “IL-2 levels in supernatant” value [6] was “increased”, the “CD25 surface expression (MFI)” value [7, 13] was “reduced” and the “proliferation of CAR-T cells” value [8] was “restored proliferation of the CAR-T cells”. For the same compound, the “inhibitory effect of tryptophan starvation on antigen-specific function of CAR T cells” value (CAR-expressing T cells; CD19.K562 target cells, tryptophan-depleted media) was “reversed”, the “inhibition of CAR-mediated function by tryptophan starvation (CD3+ cells per well)” value (CAR-expressing T cells; plate-bound anti-idiotypic agonistic antibody, 96 hours) was “restored” and the “reduction in cytokine production (IFNγ, IL-2) after re-encounter with target cells” value [9] was “partially restored”. The “proliferative capacity after tryptophan starvation” value [10] was “did not completely restore proliferative capacity”.

“IFNγ: interferon-gamma (IFNγ), recombinant human” was tested, and the IDO1 expression (CD19.A549 cells; IFNγ stimulation for 24 and 48 hours, compared to unstimulated cells) was “increased expression of endogenous IDO1”, the “IDO1 expression (MFI)” value (CD19.A549 cells; various concentrations of recombinant human IFNγ) was “dose-responsive increase in IDO1 expression” and the IDO1 expression [11] was “not detected”. For the same compound, the IDO1 expression [12] was “increase of IDO1 expression” and the IDO1 expression (dendritic cells) was “induced IDO1 expression”.
